# Test results reported in patent US20100056524A1, “Compound” (priority 2008, published 2010).
# Structures can show the parent of a compound that is named as a salt.
# What was measured:
# p38g MAPK = molecular target: T1, p38g MAPK (Homo sapiens, UniProt P53778); assay: p38g MAPK protein kinase assay; type: biochemical; details: p38g MAPK, read-out: residual kinase activity; for remaining activity at 1 µM: 1 μM compound; for remaining activity at 10 µM: 10 μM compound
# T1 construct: All protein kinases were of human origin and encoded full length proteins, unless indicated otherwise; made in house
# T1 sequence (P53778 1-367): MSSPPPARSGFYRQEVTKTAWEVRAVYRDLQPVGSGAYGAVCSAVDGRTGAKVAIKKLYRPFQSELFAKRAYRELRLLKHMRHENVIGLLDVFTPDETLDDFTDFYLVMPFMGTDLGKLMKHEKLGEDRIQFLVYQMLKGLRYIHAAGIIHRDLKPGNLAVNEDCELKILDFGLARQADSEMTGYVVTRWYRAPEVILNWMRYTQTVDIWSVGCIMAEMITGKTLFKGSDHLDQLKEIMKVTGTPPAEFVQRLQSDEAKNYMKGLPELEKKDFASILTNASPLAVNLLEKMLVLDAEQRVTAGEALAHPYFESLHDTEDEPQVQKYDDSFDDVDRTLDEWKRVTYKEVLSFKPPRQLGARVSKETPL
# Excerpt: (§1) All protein kinases were of human origin and encoded full length proteins, unless indicated otherwise. They were either expressed as glutathione S-transferase (GST) fusion proteins in Escherichia Coli or as hexahistidine (His6)-tagged proteins in insect Sf21 cells. GST fusion proteins were purified by affinity chromatography on glutathione-Sepharose, and His6-tagged proteins on nickel/nitriloacetate-agarose. The procedures for expressing some of the protein kinases used herein have been detailed previously.^8,9 The following sections outline the DNA vectors synthesised and the procedures used to express and purifying protein kinases that have not been reported previously.
# (§2) All assays (25.5 μl) were carried out at room temperature (21° C.) and were linear with respect to time and enzyme concentration under the conditions used. Assays were performed for 30 min using Multidrop Micro reagent dispensers (Thermo Electron Corporation, Waltham, Mass. 02454, USA) in a 96-well format. The concentration of magnesium acetate in the assays was 10 mM and the [γ-33P] ATP (800 cpm/pmol) was used at 5, 20 or 50 μM as indicated, in order to be at or below the Km for ATP for each enzyme. Protein kinases assayed at 5 μM ATP were: —ERK1, ERK8, PKBα, MARK3, Aurora C. Protein kinases assayed at 20 μM ATP were: —JNK1, PDK1, CHK1, CHK2, CDK2 and Aurora B. Protein kinases assayed at 50 μM ATP were: —MNK2, IKKepsilon and TBK1.
# (§3) The assays were initiated with MgATP, stopped by addition of 5 μl of 0.5 M orthophosphoric acid and spotted on to P81 filterplates using a unifilter harvester (PerkinElmer, Boston, Mass. 02118, USA). The IC50 values of inhibitors were determined after carrying out assays at 10 different concentrations of each compound.
# (§4) Unless stated otherwise, enzymes were diluted in 50 mM Tris/HCl pH 7.5, 0.1 mM EGTA, 1 mg/ml BSA, 0.1% (v/v) 2-mercaptoethanol and assayed in 50 mM Tris/HCl pH 7.5, 0.1 mM EGTA, 0.1% (v/v) 2-mercaptoethanol.
# S6K1 = molecular target: T2, S6K1 (Homo sapiens, UniProt P23443, T412E); assay: S6K1 protein kinase assay; type: biochemical; details: S6K1, read-out: residual kinase activity; for remaining activity at 1 µM: 1 μM compound; for remaining activity at 10 µM: 10 μM compound
# T2 construct: All protein kinases were of human origin and encoded full length proteins, unless indicated otherwise; made in house
# Excerpt: as §1, §2, §3, §4
# PKA = molecular target: T3, PKA (Homo sapiens, UniProt P17612); assay: PKA protein kinase assay; type: biochemical; details: PKA, read-out: residual kinase activity; for remaining activity at 1 µM: 1 μM compound; for remaining activity at 10 µM: 10 μM compound
# T3 construct: All protein kinases were of human origin and encoded full length proteins, unless indicated otherwise; made in house
# Excerpt: as §1, §2, §3, §4
# ROCK 2 = ROCK 2 protein kinase assay; type: biochemical, human; details: ROCK 2
# Excerpt: as §1, §2, §3, §4
# SmMLCK = SmMLCK protein kinase assay; type: biochemical, human; details: SmMLCK
# Excerpt: as §1, §2, §3, §4
# PHK = PHK protein kinase assay; type: biochemical, human; details: PHK
# Excerpt: as §1, §2, §3, §4
# CK2 = CK2 protein kinase assay; type: biochemical, human; details: CK2
# Excerpt: as §1, §2, §3, §4
# IKKb = molecular target: T4, IKKb (Homo sapiens, UniProt O14920); assay: IKKb protein kinase assay; type: biochemical; details: IKKb, read-out: residual kinase activity; for remaining activity at 1 µM: 1 μM compound; for remaining activity at 10 µM: 10 μM compound
# T4 construct: All protein kinases were of human origin and encoded full length proteins, unless indicated otherwise; made in house
# T4 sequence (O14920 1-756): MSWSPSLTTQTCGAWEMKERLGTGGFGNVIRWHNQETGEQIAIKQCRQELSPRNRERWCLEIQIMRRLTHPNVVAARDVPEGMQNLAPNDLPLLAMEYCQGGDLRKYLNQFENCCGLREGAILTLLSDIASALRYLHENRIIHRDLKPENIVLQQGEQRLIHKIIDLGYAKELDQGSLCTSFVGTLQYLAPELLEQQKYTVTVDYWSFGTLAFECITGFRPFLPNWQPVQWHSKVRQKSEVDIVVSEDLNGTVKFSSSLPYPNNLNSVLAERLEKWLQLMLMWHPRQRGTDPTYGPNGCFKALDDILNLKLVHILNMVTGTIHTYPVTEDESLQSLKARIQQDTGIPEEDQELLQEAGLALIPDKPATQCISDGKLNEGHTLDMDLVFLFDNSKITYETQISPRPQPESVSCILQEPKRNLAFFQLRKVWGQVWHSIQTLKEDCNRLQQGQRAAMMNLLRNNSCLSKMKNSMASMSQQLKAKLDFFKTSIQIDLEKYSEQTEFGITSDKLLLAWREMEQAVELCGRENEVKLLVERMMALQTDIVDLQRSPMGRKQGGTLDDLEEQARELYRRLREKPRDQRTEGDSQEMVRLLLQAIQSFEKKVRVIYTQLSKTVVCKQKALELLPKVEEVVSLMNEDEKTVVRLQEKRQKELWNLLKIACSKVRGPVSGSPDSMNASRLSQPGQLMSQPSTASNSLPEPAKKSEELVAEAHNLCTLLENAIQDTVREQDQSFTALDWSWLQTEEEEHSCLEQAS
# Excerpt: as §1, §2, §3, §4
# PIM1 = molecular target: T5, PIM1 (Homo sapiens, UniProt P11309); assay: PIM1 protein kinase assay; type: biochemical; details: PIM1, read-out: residual kinase activity; for remaining activity at 1 µM: 1 μM compound; for remaining activity at 10 µM: 10 μM compound
# T5 construct: All protein kinases were of human origin and encoded full length proteins, unless indicated otherwise; made in house
# Excerpt: as §1, §2, §3, §4
# PIM2 = molecular target: T6, PIM2 (Homo sapiens, UniProt Q9P1W9); assay: PIM2 protein kinase assay; type: biochemical; details: PIM2, read-out: residual kinase activity; for remaining activity at 1 µM: 1 μM compound; for remaining activity at 10 µM: 10 μM compound
# T6 construct: All protein kinases were of human origin and encoded full length proteins, unless indicated otherwise; made in house
# Excerpt: as §1, §2, §3, §4
# SYK = molecular target: T7, SYK (Homo sapiens, UniProt P43405); assay: SYK protein kinase assay; type: biochemical; details: SYK, read-out: residual kinase activity; for remaining activity at 1 µM: 1 μM compound; for remaining activity at 10 µM: 10 μM compound
# T7 construct: All protein kinases were of human origin and encoded full length proteins, unless indicated otherwise; made in house
# Excerpt: as §1, §2, §3, §4
# T2 sequence (P23443 1-421 T412E limits assumed): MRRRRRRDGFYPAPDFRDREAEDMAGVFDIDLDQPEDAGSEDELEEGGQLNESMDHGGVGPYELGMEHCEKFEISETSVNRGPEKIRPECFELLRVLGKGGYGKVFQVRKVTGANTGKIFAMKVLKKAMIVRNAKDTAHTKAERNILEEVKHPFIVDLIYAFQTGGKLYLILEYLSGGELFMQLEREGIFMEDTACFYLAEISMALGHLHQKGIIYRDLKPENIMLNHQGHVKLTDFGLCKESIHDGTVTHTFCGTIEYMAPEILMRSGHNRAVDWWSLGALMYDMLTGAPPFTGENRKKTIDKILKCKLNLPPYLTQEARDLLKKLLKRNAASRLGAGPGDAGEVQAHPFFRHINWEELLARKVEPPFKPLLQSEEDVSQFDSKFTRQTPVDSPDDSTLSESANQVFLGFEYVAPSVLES
# T6 sequence (Q9P1W9 whole entry): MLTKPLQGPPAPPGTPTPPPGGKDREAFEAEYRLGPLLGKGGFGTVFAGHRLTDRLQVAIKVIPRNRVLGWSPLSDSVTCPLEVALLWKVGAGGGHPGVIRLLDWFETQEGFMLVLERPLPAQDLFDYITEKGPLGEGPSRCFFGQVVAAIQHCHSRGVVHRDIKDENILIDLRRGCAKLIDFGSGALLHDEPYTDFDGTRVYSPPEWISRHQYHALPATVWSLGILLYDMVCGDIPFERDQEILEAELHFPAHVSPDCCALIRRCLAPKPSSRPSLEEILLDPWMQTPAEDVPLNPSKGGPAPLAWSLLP
# T5 sequence (P11309 whole entry): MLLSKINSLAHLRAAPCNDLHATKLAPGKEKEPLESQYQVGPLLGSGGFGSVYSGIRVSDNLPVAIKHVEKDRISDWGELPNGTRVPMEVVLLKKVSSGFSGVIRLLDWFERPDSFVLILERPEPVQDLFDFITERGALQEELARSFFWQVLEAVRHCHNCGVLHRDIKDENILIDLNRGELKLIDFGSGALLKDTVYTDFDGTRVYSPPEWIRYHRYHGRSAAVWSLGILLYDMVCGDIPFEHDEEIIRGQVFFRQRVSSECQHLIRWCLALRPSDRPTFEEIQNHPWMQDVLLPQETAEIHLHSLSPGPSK
SMILES,remaining activity at 1 µM (p38g MAPK),remaining activity at 10 µM (p38g MAPK),remaining activity at 1 µM (S6K1),remaining activity at 10 µM (S6K1),remaining activity at 1 µM (PKA),remaining activity at 10 µM (PKA),residual kinase activity (ROCK 2; 1 μM compound),residual kinase activity (ROCK 2; 10 μM compound),residual kinase activity (SmMLCK; 1 μM compound),residual kinase activity (SmMLCK; 10 μM compound),residual kinase activity (PHK; 1 μM compound),residual kinase activity (PHK; 10 μM compound),residual kinase activity (CK2; 1 μM compound),residual kinase activity (CK2; 10 μM compound),remaining activity at 1 µM (IKKb),remaining activity at 10 µM (IKKb),remaining activity at 1 µM (PIM1),remaining activity at 10 µM (PIM1),remaining activity at 1 µM (PIM2),remaining activity at 10 µM (PIM2),also measured
"O=C(NCCCNc1nc(Nc2cccc(N3CCCC3=O)c2)ncc1C1CC1)c1cccs1 [Example 47, Thiophene-2-carboxylic acid (3-{5-cyclopropyl-2-[3-(2-oxo-pyrrolidin-1-yl)-phenylamino]-pyrimidin-4-ylamino}-propyl)-amide. Hydrochloride salt]",97%,77%,63%,30%,96%,80%,85%,48%,102%,81%,78%,24%,80%,78%,91%,86%,82%,57%,101%,93%,remaining activity at 1 µM (SYK): 82%; remaining activity at 10 µM (SYK): 49%
"O=C(NCCCNc1nc(Nc2cccnc2)ncc1C1CC1)c1cccs1 [Example 50, Thiophene-2-carboxylic acid {3-[5-cyclopropyl-2-(pyridin-3-ylamino)-pyrimidin-4-ylamino]-propyl}-amide]",93%,80%,63%,30%,91%,80%,77%,51%,88%,75%,64%,15%,72%,80%,90%,88%,63%,92%,100%,89%,remaining activity at 1 µM (SYK): 83%; remaining activity at 10 µM (SYK): 60%
